Measured values published in patent US7192924B2, “Corticotropin releasing factor 2 receptor agonists” (priority 2002, dated 2007).
Peptide text beside a SMILES is read from it.

Experiments:
CRF2R = molecular target: T1, CRF2R (Homo sapiens, UniProt Q13324); assay: CRF2R agonist activity (EC50, Emax), called comparative CRF binding; format: cell-based; conditions: read-out: CRF2R EC50
T1 sequence (Q13324 1-411): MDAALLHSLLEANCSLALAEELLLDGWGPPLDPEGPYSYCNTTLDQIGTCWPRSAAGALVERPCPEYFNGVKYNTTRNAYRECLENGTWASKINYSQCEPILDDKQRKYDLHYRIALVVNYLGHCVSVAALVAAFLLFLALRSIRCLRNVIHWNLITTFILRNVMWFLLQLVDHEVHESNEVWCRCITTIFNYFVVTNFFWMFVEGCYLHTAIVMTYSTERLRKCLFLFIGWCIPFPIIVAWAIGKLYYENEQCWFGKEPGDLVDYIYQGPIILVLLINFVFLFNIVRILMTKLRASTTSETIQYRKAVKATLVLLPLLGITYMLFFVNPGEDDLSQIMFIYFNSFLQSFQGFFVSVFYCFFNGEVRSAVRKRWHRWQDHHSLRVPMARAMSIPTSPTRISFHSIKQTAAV
How it was run: (§1)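 Agonism is judged from increased cAMP, measured either directly in lysates or through reporter genes under a cAMP responsive element. Cells or membranes express only the receptor of interest, and vehicle-treated cells serve as control.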

CRF1R = molecular target: T2, CRF1R (Homo sapiens, UniProt P34998); assay: CRF1R agonist activity (EC50, Emax), called comparative CRF binding; format: cell-based; conditions: read-out: CRF1R EC50
T2 sequence (P34998 24-415): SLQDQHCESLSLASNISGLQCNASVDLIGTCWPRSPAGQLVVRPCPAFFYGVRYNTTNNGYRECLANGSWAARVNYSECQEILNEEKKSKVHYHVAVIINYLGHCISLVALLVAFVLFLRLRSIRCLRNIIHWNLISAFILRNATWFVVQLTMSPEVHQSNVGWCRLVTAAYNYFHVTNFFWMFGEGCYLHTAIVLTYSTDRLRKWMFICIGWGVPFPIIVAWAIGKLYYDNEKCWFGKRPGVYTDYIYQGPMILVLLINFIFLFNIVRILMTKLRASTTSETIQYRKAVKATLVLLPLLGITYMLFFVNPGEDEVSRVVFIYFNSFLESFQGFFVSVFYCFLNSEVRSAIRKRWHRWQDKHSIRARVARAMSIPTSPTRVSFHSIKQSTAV
How it was run: as §1

Row | Structure (SMILES) | EC50 (CRF2R) | EC50 (CRF1R)
1 | CC[C@H](C)[C@H](NC(=O)[C@H](CCC(=O)O)NC(=O)[C@H](C)NC(=O)[C@H](CC(N)=O)NC(=O)[C@H](CCC(N)=O)NC(=O)[C@H](CCC(=O)O)NC(=O)[C@H](C)NC(=O)[C@H](CCCNC(=N)N)NC(=O)[C@H](CCC(=O)O)NC(=O)[C@H](CCCNC(=N)N)NC(=O)[C@H](CCC(N)=O)NC(=O)[C@H](CO)NC(=O)[C@H](CCC(N)=O)NC(=O)[C@@H](NC(=O)[C@H](CCCCN)NC(=O)[C@H](CCC(=O)O)NC(=O)[C@H](CC(C)C)NC(=O)[C@H](CCC(=O)O)NC(=O)[C@H](CC(C)C)NC(=O)[C@H](CC(C)C)NC(=O)[C@@H](NC(=O)[C@H](CCCNC(=N)N)NC(=O)[C@H](CC(C)C)NC(=O)[C@H](CC(C)C)NC(=O)[C@H](CC(C)C)NC(=O)[C@H](CC(C)C)NC(=O)[C@@H]1CCCN1C(=O)[C@H](CC(C)C)NC(=O)[C@H](CC(=O)O)NC(=O)[C@@H](NC(=O)[C@H](CO)NC(=O)[C@H](CC(C)C)NC(=O)[C@H](CO)NC(=O)[C@@H]1CCCN1C(=O)[C@H](CC(N)=O)NC(=O)[C@@H](N)CC(=O)O)[C@@H](C)CC)[C@@H](C)O)[C@@H](C)O)C(=O)N[C@@H](Cc1ccccc1)C(=O)N[C@@H](C)C(=O)N[C@@H](CCC(=O)O)C(=O)N[C@H](C(N)=O)C(C)C [compound 323] (H-DNPSLSIDLPLLLLRTLLELEKTQSQRERAEQNAEIFAEV-NH2; N-terminus assumed) | 19.6 nM | ≥ 1000 nM
2 | CC[C@H](C)[C@H](NC(=O)[C@H](CCC(N)=O)NC(=O)[C@H](C)NC(=O)[C@H](CC(N)=O)NC(=O)[C@H](CCC(N)=O)NC(=O)[C@H](CCC(=O)O)NC(=O)[C@H](C)NC(=O)[C@H](CCCNC(=N)N)NC(=O)[C@H](CCC(=O)O)NC(=O)[C@H](CCCNC(=N)N)NC(=O)[C@H](CCC(N)=O)NC(=O)[C@H](CO)NC(=O)[C@H](CCC(N)=O)NC(=O)[C@@H](NC(=O)[C@H](CCCCN)NC(=O)[C@H](CCC(=O)O)NC(=O)[C@H](CC(C)C)NC(=O)[C@H](CCC(=O)O)NC(=O)[C@H](CC(C)C)NC(=O)[C@H](CC(C)C)NC(=O)[C@@H](NC(=O)[C@H](CCCNC(=N)N)NC(=O)[C@H](CC(C)C)NC(=O)[C@H](CC(C)C)NC(=O)[C@H](CC(C)C)NC(=O)[C@H](CC(C)C)NC(=O)[C@@H]1CCCN1C(=O)[C@H](CC(C)C)NC(=O)[C@H](CC(=O)O)NC(=O)[C@@H](NC(=O)[C@H](CO)NC(=O)[C@H](CC(C)C)NC(=O)[C@H](CO)NC(=O)[C@@H]1CCCN1C(=O)[C@H](CC(N)=O)NC(=O)[C@@H](N)CC(=O)O)[C@@H](C)CC)[C@@H](C)O)[C@@H](C)O)C(=O)N[C@@H](Cc1ccccc1)C(=O)N[C@@H](C)C(=O)N[C@@H](CCC(N)=O)C(=O)N[C@H](C(N)=O)C(C)C [compound 327] (H-DNPSLSIDLPLLLLRTLLELEKTQSQRERAEQNAQIFAQV-NH2; N-terminus assumed) | 28.4 nM | ≥ 1000 nM
3 | CC[C@H](C)[C@H](NC(=O)[C@H](CCCNC(=N)N)NC(=O)[C@H](C)NC(=O)[C@H](CC(N)=O)NC(=O)[C@H](CCC(N)=O)NC(=O)[C@H](CCC(=O)O)NC(=O)[C@H](C)NC(=O)[C@H](CCCNC(=N)N)NC(=O)[C@H](CCC(=O)O)NC(=O)[C@H](CCCNC(=N)N)NC(=O)[C@H](CCC(N)=O)NC(=O)[C@H](CO)NC(=O)[C@H](CCC(N)=O)NC(=O)[C@@H](NC(=O)[C@H](CCCNC(=N)N)NC(=O)[C@H](C)NC(=O)[C@H](CC(C)C)NC(=O)[C@H](CCC(=O)O)NC(=O)[C@H](CC(C)C)NC(=O)[C@H](CC(C)C)NC(=O)[C@@H](NC(=O)[C@H](CCCNC(=N)N)NC(=O)[C@H](CC(C)C)NC(=O)[C@H](CC(C)C)NC(=O)[C@H](Cc1ccccc1)NC(=O)[C@H](CC(C)C)NC(=O)[C@@H]1CCCN1C(=O)[C@H](CC(C)C)NC(=O)[C@H](CC(=O)O)NC(=O)[C@@H](NC(=O)[C@H](CO)NC(=O)[C@H](CC(C)C)NC(=O)[C@H](CO)NC(=O)[C@@H]1CCCN1C(=O)[C@H](CC(N)=O)NC(=O)[C@@H](N)CC(=O)O)[C@@H](C)CC)[C@@H](C)O)[C@@H](C)O)C(=O)N[C@@H](Cc1ccccc1)C(=O)N[C@@H](C)C(=O)N[C@@H](CCCNC(=N)N)C(=O)N[C@H](C(N)=O)C(C)C [compound 329] (H-DNPSLSIDLPLFLLRTLLELARTQSQRERAEQNARIFARV-NH2; N-terminus assumed) | 5.15 nM | ≥ 1000 nM
4 | CC[C@H](C)[C@H](NC(=O)[C@H](CCCNC(=N)N)NC(=O)[C@H](C)NC(=O)[C@H](CC(N)=O)NC(=O)[C@H](CCC(N)=O)NC(=O)[C@H](CCC(=O)O)NC(=O)[C@H](C)NC(=O)[C@H](CCCNC(=N)N)NC(=O)[C@H](CCC(=O)O)NC(=O)[C@H](CCCNC(=N)N)NC(=O)[C@H](CCC(N)=O)NC(=O)[C@H](CO)NC(=O)[C@H](CCC(N)=O)NC(=O)[C@@H](NC(=O)[C@H](CCCCN)NC(=O)[C@H](CCC(=O)O)NC(=O)[C@H](CC(C)C)NC(=O)[C@H](CCC(=O)O)NC(=O)[C@H](CC(C)C)NC(=O)[C@H](CC(C)C)NC(=O)[C@@H](NC(=O)[C@H](CCCNC(=N)N)NC(=O)[C@H](CC(C)C)NC(=O)[C@H](CC(C)C)NC(=O)[C@H](Cc1ccccc1)NC(=O)[C@H](CC(C)C)NC(=O)[C@@H]1CCCN1C(=O)[C@H](CC(C)C)NC(=O)[C@H](CC(=O)O)NC(=O)[C@@H](NC(=O)[C@H](CO)NC(=O)[C@H](CC(C)C)NC(=O)[C@H](CO)NC(=O)[C@@H]1CCCN1)[C@@H](C)CC)[C@@H](C)O)[C@@H](C)O)C(=O)N[C@@H](Cc1ccccc1)C(=O)N[C@@H](C)C(=O)N[C@@H](CCCNC(=N)N)C(=O)N[C@H](C(N)=O)C(C)C [compound 331] (H-PSLSIDLPLFLLRTLLELEKTQSQRERAEQNARIFARV-NH2; N-terminus assumed) | 9.85 nM | ≥ 1000 nM
5 | CC[C@H](C)[C@H](NC(=O)[C@H](CCCNC(=N)N)NC(=O)[C@H](C)NC(=O)[C@H](CC(N)=O)NC(=O)[C@H](CCC(N)=O)NC(=O)[C@H](CCC(=O)O)NC(=O)[C@H](C)NC(=O)[C@H](CCCNC(=N)N)NC(=O)[C@H](CCC(=O)O)NC(=O)[C@H](CCCNC(=N)N)NC(=O)[C@H](CCC(N)=O)NC(=O)[C@H](CO)NC(=O)[C@H](CCC(N)=O)NC(=O)[C@@H](NC(=O)[C@H](CCCCN)NC(=O)[C@H](CCC(=O)O)NC(=O)[C@H](CC(C)C)NC(=O)[C@H](CCC(=O)O)NC(=O)[C@H](CC(C)C)NC(=O)[C@H](CC(C)C)NC(=O)[C@@H](NC(=O)[C@H](CCCNC(=N)N)NC(=O)[C@H](CC(C)C)NC(=O)[C@H](CC(C)C)NC(=O)[C@@H](NC(=O)[C@H](CC(C)C)NC(=O)[C@@H]1CCCN1C(=O)[C@H](CC(C)C)NC(=O)[C@H](CC(=O)O)NC(=O)[C@@H](NC(=O)[C@H](CO)NC(=O)[C@H](CC(C)C)NC(=O)[C@H](CO)NC(=O)[C@@H]1CCCN1)[C@@H](C)CC)[C@@H](C)CC)[C@@H](C)O)[C@@H](C)O)C(=O)N[C@@H](Cc1ccccc1)C(=O)N[C@@H](C)C(=O)N[C@@H](CCCNC(=N)N)C(=O)N[C@H](C(N)=O)C(C)C [compound 332] (H-PSLSIDLPLILLRTLLELEKTQSQRERAEQNARIFARV-NH2; N-terminus assumed) | 9.95 nM | ≥ 1000 nM
6 | CC[C@H](C)[C@H](NC(=O)[C@H](CCCNC(=N)N)NC(=O)[C@H](C)NC(=O)[C@H](CC(N)=O)NC(=O)[C@H](CCC(N)=O)NC(=O)[C@H](CCC(=O)O)NC(=O)[C@H](C)NC(=O)[C@H](CCCNC(=N)N)NC(=O)[C@H](CCC(=O)O)NC(=O)[C@H](CCCNC(=N)N)NC(=O)[C@H](CCC(N)=O)NC(=O)[C@H](CO)NC(=O)[C@H](CCC(N)=O)NC(=O)[C@@H](NC(=O)[C@H](CCCCN)NC(=O)[C@H](CCC(=O)O)NC(=O)[C@H](CC(C)C)NC(=O)[C@H](CCC(=O)O)NC(=O)[C@H](CC(C)C)NC(=O)[C@H](CC(C)C)NC(=O)[C@@H](NC(=O)[C@H](CCCNC(=N)N)NC(=O)[C@H](CC(C)C)NC(=O)[C@H](CC(C)C)NC(=O)[C@H](Cc1ccccc1)NC(=O)[C@H](CC(C)C)NC(=O)[C@@H]1CCCN1C(=O)[C@H](CC(C)C)NC(=O)[C@H](CC(=O)O)NC(=O)[C@@H](NC(=O)[C@H](CO)NC(=O)[C@H](CC(C)C)NC(=O)[C@H](CO)NC(=O)[C@@H]1CCCN1C(=O)[C@H](CC(N)=O)NC(=O)[C@@H](N)CC(=O)O)[C@@H](C)CC)[C@@H](C)O)[C@@H](C)O)C(=O)N[C@@H](Cc1ccccc1)C(=O)N[C@@H](CC(=O)O)C(=O)N[C@@H](CCCNC(=N)N)C(=O)N[C@H](C(N)=O)C(C)C [compound 336] (H-DNPSLSIDLPLFLLRTLLELEKTQSQRERAEQNARIFDRV-NH2; N-terminus assumed) | 17.8 nM | ≥ 1000 nM
